The values below come from patent US10675317B2, “Use of ginseng extract, ginsenoside and ginsenoside derivative in the preparation of medicine or health care product for treating cytomegalovirus infection disorders” (priority 2015, dated 2020).

Holding throughout (type): in vivo, Kunming mice
Assay [1] has as its system HCMV infected mice. As to the kind of experiment: IL-2 level in serum of HCMV infected mice (ELISA kit). The note with it: for IL-2 level compared with the positive drug control group (in words): ganciclovir 45.5 mg/kg/d as comparator; for IL-2 concentration: 21 days. On the procedure: (§1) The mice were injected with HCMV10^−3 (0.1 ml/mouse) through the caudal vein of mouse tails; 0.9% normal saline is injected to the normal control group, 0.1 ml/piece; and intragastric administration is started according to the determined dosage on the second day of infection, with 21 days of medication.
Selecting six mice in each group randomly for sampling, 40 min later after the last administration, picking eyeballs to take blood, and collecting the blood by a centrifugal tube Performing high-speed centrifugation for 5 min at 3000 r/min after blood coagulation, and taking the serum. The IL-2 in the serum is measured according to the manual of an ELISA kit.
1L-2, namely interleukin-2, is also named T cell growth factor (TCGF), is a cell factor with wide biological activity, which is generated by activated CD4+Th1 cells, and can promote the proliferation of Th0 and CTL, thus being an important factor for regulating and controlling immune responses.
(In general: An ELISA detects its analyte on a solid surface through an enzyme-linked reagent.)

The subject of assay [2] is HCMV infected mice. As to conditions: for Level of serum hemolysin antibodies compared with the positive drug control group (in words): HCMV infected mice, ganciclovir 45.5 mg/kg/d as comparator; for Hemolysin (OD value): serum of HCMV infected mice, 540 nm, 21 days. Here is the method: as §1
40 min later after the last administration, picking eyeballs to take blood, collecting serum, diluting the serum for 100 times with normal saline, uniformly mixing 1 mL of the diluted serum, 0.5 mL of 5% chicken erythrocyte suspension and 0.5 mL of 10% complement (guinea pig serum), incubating for 30 min In 37° C. incubator, setting 0° C. refrigerator for 30 min to stop the reaction. Centrifugating, taking the supernatant, and then measuring the optical density (OD value) at 540 nm by spectrophotometer.

Assay [3] deals with HCMV infected mice. As to the kind of experiment: Spleen and thymus gland indexes of HCMV infected mice. As to conditions: for Effect on weight of the immune organs of HCMV infected mice (in words): thymus glands and spleens; for Effect on weight of the immune organs of HCMV infected mice (in words) / Spleen indexes / Thymus gland indexes: day 21. On the procedure: as §1
(§2) During the experiment. Animals were weighed and the thymus and spleen were weighed on the 21st day of administration, and their indices (thymus index, spleen index, weight of thymus and spleen organs per 10 g body weight (mg)) were measured.
Thymus glands and spleens are important immune organs, with the organ indexes reflecting the strength of immune functions of organisms to a certain degree. The thymus glands have the main functions of generating T-lymphocytes and secreting thymosin, and mainly take part in cellular immunity; and abundant lymphocytes and macrophages are contained in the spleens. The weight of the thymus glands and the spleens is related to functions thereof as well as the quantity of immune cells therein, and the height depends on the proliferation degree of the lymphocytes therein.

For assay [4], the system named is HCMV infected mice. Description: Survival rate and weight of HCMV infected mice. As to conditions: for Toxic symptoms, death and weight growth of treated HCMV infected mice (in words): 21 days of intragastric administration, compared with model group; for Average animal weight (g) Termination of treatment: HCMV infected mice; for Average animal weight (g) Termination of treatment / Animal number (n) Termination of treatment: 21 days; for Animal number (n) Termination of treatment: surviving of 10 HCMV infected mice. On the procedure: 1.3 Virus standard strain HCMVADI69 and the proliferation of species are introduced in October 1999 from Virus Seed Room of Virus Institute in Chinese Academy of Preventive Medicine. […] HEL cultural supernatant reaching +++−++++ in the cell lesions is discarded and lightly washed for 3 times by PBS; double distilled water is added; freeze-thawing is performed for 3 times at −20° C.; vigorous blowing and beating are performed; 10,000 r/min centrifugation is performed at 4° C. for 20 min; and the supernatant is collected to obtain the standard virus strain.
as §1, §2
Recording the number of dead animals in the experimental process.
All the mice are subjected to the medicines continuously for 21 days in the whole experimental process.

Setting [5] is: high-dosage group 0.3 mg/kg/d intragastric.
Setting [6] is: low-dosage group 0.012 mg/kg/d intragastric.
Where [7] appears, read: medium-dosage group 0.06 mg/kg/d intragastric.
The mark [8] stands for this setting: HCMV infected mice, high-dosage group 0.3 mg/kg/d intragastric.
Setting [9] is: HCMV infected mice, low-dosage group 0.012 mg/kg/d intragastric.
[10] abbreviates: HCMV infected mice, medium-dosage group 0.06 mg/kg/d intragastric.

Read-outs that look alike come from different tables or passages of the source.

For “20(R)-ginsenoside Rg3 8-N-butyrate [Ginsenoside rg3 derivatives]”, the “IL-2 level compared with the model group (in words)” value in assay [1] is “higher than those of the model group”. Further, the “IL-2 level compared with the positive drug control group (in words)” value in assay [1] was “superior to that of the positive drug control group”. Besides, the figures for the “IL-2 concentration” value in assay [1] (setting [5]), in assay [1] (setting [6]) and in assay [1] (setting [7]) were 29.32 ± 4.09 pg/mL, 27.99 ± 5.38 pg/mL and 28.62 ± 4.21 pg/mL, respectively. In addition, the “Level of serum hemolysin antibodies compared with the positive drug control group (in words)” value in assay [2] is “superior to that of the positive drug control group”. The figures for the “Hemolysin (OD value)” value in assay [2] (setting [5]), in assay [2] (setting [6]) and in assay [2] (setting [7]) were 0.19 ± 0.11 OD value, 0.17 ± 0.08 OD value and 0.18 ± 0.07 OD value, respectively. Besides, the “Effect on weight of the immune organs of HCMV infected mice (in words)” value in assay [3] was “obvious weight increasing effect”. In addition, in assay [4], the “Toxic symptoms, death and weight growth of treated HCMV infected mice (in words)” value is “mild toxic symptom, less death and good weight growth”. The “Average animal weight (g) Termination of treatment” value (from here on “Average animal weight”) in assay [4] (setting [5]) is on record as 27.7 ± 1.84 g; in assay [4] (setting [6]), 26.4 ± 0.18 g; in assay [4] (setting [7]), 27.1 ± 0.49 g. The “Animal number (n) Termination of treatment” value (“Animal number (n) Termination” below) in assay [4] (setting [5]) came to 9; in assay [4] (setting [6]) it was 6; in assay [4] (setting [7]) it was 7.

Regarding `CC(C)=CCC[C@](C)(O)[C@H]1CC[C@]2(C)[C@@H]1[C@H](O)C[C@@H]1[C@@]3(C)CC[C@H](O[C@@H]4O[C@H](CO)[C@@H](O)[C@H](O)[C@H]4O[C@@H]4O[C@H](CO)[C@@H](O)[C@H](O)[C@H]4O)C(C)(C)[C@@H]3CC[C@]12C` [Ginsenoside rg3, 20(R)-ginsenoside Rg3], the “IL-2 level compared with the model group (in words)” value in assay [1] is recorded as “higher than those of the model group”. Further, in assay [1], the “IL-2 level compared with the positive drug control group (in words)” value was “superior to that of the positive drug control group”. In addition, the “IL-2 concentration” value in assay [1] (setting [5]) worked out at 28.64 ± 4.66 pg/mL; in assay [1] (setting [6]), 27.02 ± 6.39 pg/mL; in assay [1] (setting [7]) it was 27.19 ± 5.60 pg/mL. Moreover, the “Level of serum hemolysin antibodies compared with the positive drug control group (in words)” value in assay [2] is “superior to that of the positive drug control group”. Further, the “Hemolysin (OD value)” value in assay [2] (setting [5]) amounted to 0.18 ± 0.03 OD value; in assay [2] (setting [6]) it was 0.15 ± 0.08 OD value; in assay [2] (setting [7]), 0.16 ± 0.05 OD value. In assay [3] (HCMV infected mice), the “Spleen indexes and thymus gland indexes compared with the model group (in words)” value is given as “significantly different from those of the model group”. The Spleen indexes in assay [3] (setting [8]) is on record as 0.061 ± 0.021; in assay [3] (setting [9]), 0.056 ± 0.045; in assay [3] (setting [10]) it was 0.057 ± 0.013. Also, the figures for the Thymus gland indexes in assay [3] (setting [8]), in assay [3] (setting [9]) and in assay [3] (setting [10]) were 0.031 ± 0.009, 0.027 ± 0.011 and 0.029 ± 0.021, respectively. The “Effect on weight of the immune organs of HCMV infected mice (in words)” value in assay [3] was “obvious weight increasing effect”. Moreover, the “Toxic symptoms, death and weight growth of treated HCMV infected mice (in words)” value in assay [4] is “mild toxic symptom, less death and good weight growth”. Moreover, the “Average animal weight” value in assay [4] (setting [5]) was 26.6 ± 1.83 g; in assay [4] (setting [6]) it was 25.1 ± 0.11 g; in assay [4] (setting [7]), 25.8 ± 0.54 g. In addition, the figures for the “Animal number (n) Termination” value in assay [4] (setting [5]), in assay [4] (setting [6]) and in assay [4] (setting [7]) were 8, 6 and 6, respectively.

For `Nc1nc(O)c2ncn(COC(CO)CO)c2n1` [Positive drug control group, ganciclovir, reference compound], the “IL-2 concentration” value in assay [1] (ganciclovir 45.5 mg/kg/d) is 24.54 ± 2.66 pg/mL. Also, the “Hemolysin (OD value)” value in assay [2] (ganciclovir 45.5 mg/kg/d) is reported as 0.11 ± 0.04 OD value. Moreover, in assay [4] (ganciclovir 45.5 mg/kg/d), the “Average animal weight” value is on record as 26.9 ± 3.97 g; the “Survival number, weight growth and symptom expression compared with the test drug groups (in words)” value is “totally approximate to those of the large-dosage groups”; the “Animal number (n) Termination” value was 8.
